# Test results from patent US20080153792A1, “Drug Identification and Treatment Method” (priority 2006, published 2008).
# How the values were obtained:
# [1] = tested on: osteoblasts and osteocytes in murine vertebral bone; assay: osteoblast and osteocyte apoptosis in ovariectomized mice (TUNEL); format: in vivo, mouse; settings: ovariectomized Swiss Webster mice
# Source text: The degree of apoptosis of osteoblasts and osteocytes in murine vertebral bone as a function of estrogen deficiency was examined. Swiss Webster mice (four months old) were ovariectomized. Twenty-eight days later, the animals were sacrificed, vertebrae were isolated, fixed and embedded, and then undecalcified in methacrylate.
# female SJL mice, EAE = assay: experimental autoimmune encephalomyelitis (EAE), PLP-induced, Example 23; format: in vivo, mouse; settings: 0.1 mg q.d. po from clinical onset
# [2] = metabolic stability in liver microsomes: human; settings: 10 min
# Method: (§1) The protocol was performed as follows. […] (2) Set up samples as follows. […] (4) The internal standard/acetonitrile solution.
# [3] = metabolic stability in liver microsomes: mouse; settings: 10 min
# Method: as §1
# MG-63 cells = assay: reversal of glucocorticoid effects in MG-63 osteosarcoma cells; format: cell-based, human
# [4] = tested on: NF-κB in spleen cells of ICR mice; assay: activated NF-κB in spleen cell nuclei after LPS, Example 8; format: in vivo, mouse; settings: about 40 mg/kg i.p. 24 h before and 1 h after LPS; spleens 1.5 hours after LPS
# Method: The capacity of selected compounds to treat LPS induced shock/inflammation in mice was examined by a protocol similar to the protocol described above. Five groups of three ICR mice weighing about 30 g were each treated by intraperitoneal injection with 120 μL vehicle (30% sulfobutylether-cyclodextrin in water), androst-5-ene-3α,7β,16α,17β-tetrol in vehicle, androst-5-ene-3β,4β,16α,17β-tetrol in vehicle or 4β-acetoxyandrost-5-ene-3β,16α,17β-triol in vehicle. All drug and vehicle formulations were solutions, not suspensions. The sulfobutylether-cyclodextrin was obtained commercially (Captisol™, www.cyclexinc.com). There were two vehicle control groups one group received vehicle alone and the other received vehicle plus LPS. […] Drug was administered at about 40 mg/kg (1.2 mg drug/animal for each administration of the drugs). Spleens were harvested from the animals at 1.5 hours after injection of LPS and spleen cells were lysed and assayed for activated NF-κB by isolating nuclei from spleen cells and measuring NF-κB from the lysed nuclei. […] The level of activated NF-κB in spleen cells from the animals that were treated with vehicle and no LPS, was essentially the same as the activated NF-κB in spleen cells from drug treated animals.
# [5] = other protocols: degree of sulfation and glucuronidation
# NF-κB = assay: NF-κB-bla THP-1 β-lactamase reporter assay; format: cell-based, human
# [6] = tested on: BALB/c mice, OVA sensitized and challenged; assay: ovalbumin (OVA) sensitized mouse model of asthma; format: in vivo; settings: for IL-13: s.c. once daily, dexamethasone 5 mg/kg, compound 1 mg/mouse
# Method: BALB/c mice were sensitized by intraperitoneal injection with OVA (in alum adjuvant) on days 1, and 12. Airways were challenged with OVA on days 28 and 30 by delivery of OVA to the lung, or with saline. […] The remaining animals were divided into 6 groups (6 mice per group). Groups of the mice were treated once daily by subcutaneous injection as follows. Group 1 vehicle control (0.1% carboxymethyl cellulose, 0.9% saline, 2% tween 80, 0.05% phenol). Group 2 dexamethazone (5 mg/kg). Group 3 3α,16α,17α-trihydroxyandrostane (1 mg/mouse). Three animals in groups 1-3 were sacrificed on day 35 at 1 hr after final treatment and the remaining 3 animals in groups 1-3 were sacrificed on day 38.
# [7] = tested on: mice treated daily with dexamethasone; assay: osteoprotegerin levels in dexamethasone treated mice; format: in vivo, mouse; settings: vehicle and dexamethasone at 10 μg/day for 23 days (positive control group)
# Method: Osteoprotegerin levels in mice that were treated with vehicle and dexamethasone at 10 μg/day (positive control group) had 3.3 pMol/L osteoprotegerin, while animals treated with vehicle, dexamethasone and 17α-ethynyl-5-androstene-3β,7β,17β-triol at 4 mg/kg/day had 6.4 pMol/L osteoprotegerin (p<0.05).
# [8] = tested on: BALB/C mice, TNP-OVA sensitized; assay: reporter antigen popliteal lymph node (PLN) assay; format: in vivo, mouse; settings: 5 μg/day by subcutaneous injection; day 5
# Source text: Analysis of immune suppression. Glucocorticoid steroids such as dexamethasone or hydrocortisone are typically immune suppressive and have significant toxicities associated with their use. Immune suppression was examined in a reporter antigen popliteal lymph node assay in mice essentially as previously described (C. Goebel et al., Inflamm. Res., 45(Suppl. 2):S85-S90, 1996; R. Pieters et al., Environmental Health Perspectives 107(Suppl. 5):673-677,1999). […] In this protocol, the vehicle was 0.1% carboxymethylcellulose, 0.9% saline, 2% tween 80 and 0.05% phenol, which contained 17α-ethynylandrost-5-ene-3β,7β,17β-triol in suspension in drug treated animals. Assessment of activity included (1) measuring suppression of numbers of total lymphocytes, antigen specific IgM, IgG1 and IgG2a antibody secreting cells (ASC) (ELISPOT assay) in popliteal lymph node cells; (2) analysis of cell surface marker (CD4, CD8, CD19, F480, CD80, CD86) expression by flow cytometry of living cells in suspension; and (3) IL-4, TNFα and IFNγ production by lymphocytes in vitro (ELISA).
# Groups (n=5 per group) of specific pathogen free BALB/C mice were used. The Positive control group was treated with vehicle (oral gavage) and 5 μg/day dexamethasone by subcutaneous injection to induce immune suppression. Vehicle control animals (negative control) were treated with vehicle alone (oral gavage). One group of animals was treated with 17α-ethynylandrost-5-ene-3β,7β,17β-triol at 0.1 mg/day by oral gavage. Another group was treated with 1 mg/day of 17α-ethynylandrost-5-ene-3β,7β,17β-triol was administered to the animals oral gavage. The results were analyzed by two-tailed Student's t-test with equal variance. The animals were injected in the right hind footpad with 50 μL of freshly prepared sensitizing dose of TNP-OVA. Dexamethasone (decadron phosphate injection; dexamethasone sodium phosphate) was administered by subcutaneous injection into the nape of the neck daily, immediately following sensitization with TNP-OVA. 17α-Ethynylandrost-5-ene-3β,7β,17β-triol was given immediately afterwards by gavage. Five days after injection of TNP-OVA, blood was drawn by orbital puncture, and the mice were euthanized by cervical dislocation and popliteal lymph nodes were removed and separated from adherent fatty tissue. Single cell suspensions were prepared, resuspended in 1 mL PBS-BSA (1%) and counted. Cell numbers, IL-4, IL-5 and IFNγ were measured.
structure (smiles),measurement,setting,value
"C[C@]12CC[C@H]3[C@@H](CCC4=C[C@H](O)CC[C@@H]43)[C@@H]1CC[C@@H]2O [4-estrene-3α,17β-diol]",osteoblast and osteocyte apoptosis,[1],reduce apoptosis
"C[C@]12CC[C@H]3[C@@H]([C@@H](O)C=C4C[C@H](O)CC[C@@]43C)[C@@H]1C[C@@H](O)[C@@H]2O [androst-5-ene-3α,7β,16α,17β-tetrol]",course of EAE compared to vehicle-treated mice,"female SJL mice, EAE",very similar to that observed in the vehicle-treated mice
same,parent remaining human microsomes,[2],100% (10 min)
same,parent remaining mouse microsomes,[3],100% (10 min)
same,osteoprotegerin levels in the presence of 30 nM dexamethasone,MG-63 cells; 10 nM compound,normal osteoprotegerin levels
same,decrease of NF-κB activation compared to LPS+vehicle control group,[4],about 50%
same,degree of sulfation and degree of glucuronidation compared to diols,[5],low
"C[C@]12CC[C@H]3[C@@H](CCC4C[C@H](O)[C@@H](O)C[C@@]43C)[C@@H]1C[C@@H](O)[C@@H]2O (stereo partly drawn) [androstane-2β,3α,16α,17β-tetrol]",IC50,"NF-κB; Homo sapiens, THP-1, read-out: IC50, this protocol",> 10000 nM
same,melting point,,260 to 263 °C
"C[C@@H]1C[C@H]2[C@@H]3CCC4=CC(=O)C=C[C@]4(C)[C@@]3(F)[C@@H](O)C[C@]2(C)[C@@]1(O)C(=O)CO [dexamethasone, reference compound]",IL-13,[6]; day 35,340 pg/mL
same,IL-5 in lung tissue,[6]; day 38,145 pg/mL
same,IL-13,[6]; day 38,390 pg/mL
same,osteoprotegerin,[7],3.3 pmol/L
same,EC50,"NF-κB; Homo sapiens, THP-1, TNFα stimulation, average of 5 assays, read-out: EC50 for decreasing the effect of TNFα",0.47 nM
same,maximum NF-κB inhibition,NF-κB; this protocol,100%
same,average number of lymphocytes in PLNs,[8],2.9×10^6 per lymph node
same,11β-HSD mRNA,"MG-63 cells; dexamethasone 30 nM, compounds at 10 nM in the presence of 30 nM dexamethasone, vehicle control 0.25",1.0 units
same,IL-8,"MG-63 cells; dexamethasone 30 nM, compounds at 10 nM in the presence of 30 nM dexamethasone, vehicle control 0.90",0.12 units
same,IL-6,"MG-63 cells; dexamethasone 30 nM, compounds at 10 nM in the presence of 30 nM dexamethasone, vehicle control 6.2",1.3 pg/mL
same,osteoprotegerin,"MG-63 cells; dexamethasone 30 nM, vehicle control 445",280 pmol/L
